# Measurements reported in US4613622A, “Sebosuppressive preparations containing benzyl alcohol derivatives” (Henkel Kommanditgesellschaft auf Aktien, priority 1983, dated 1986).
# Tests used:
# [1] = tested on: secretion of the sebaceous glands; conditions: known additives of U.S. Pat. No. 4,331,655 / German Patent Application 29 26 267; cited from earlier work
# [2] = tested on: brown skin surface lipids of the rats; experiment: Rat skin browning test for antiseborrheic (sebosuppressive) effect, visual assessment of shaved back; assay type: in vivo, male Wistar rats; conditions: topical; for Evaluation of sebosuppressive effects, evaluation method 1 (examiners recognizing the treated side) / Evaluation of sebosuppressive effects, evaluation method 2 (difference between righthand and lefthand side) / Evaluation of sebosuppressive effects, evaluation method 3 (difference in intensity of brown shades vs control animals): once daily for a total of 9 days over 14 days; for Sebum reduction: points difference / points of control group
# Source text: The antiseborrheic effect was closely studied using the animal tests described in the following: The test animals were male Wistar rats having a body weight of 220 to 230 g. The degree of browning on the shaved back of the rats was visually assessed. Browning is produced by the brown skin surface lipids of the rats. This test is based on the observation that young male and female rats washed with surfactant solution or with a lipid solvent and also male rats systematically treated with oestrogen have only the normal light, pick-colored skin after shaving. At the same time, only comparatively very small quantities of lipids can be extracted from shaved hairs. In order to assess effectiveness, the test substances in solution in alcohol were each brushed onto half the back of 6 rats. The other half was only treated with the solvent minus active substances. Over the test period of 14 days, the test substances were applied once daily for a total of 9 days. A group of 6 rats which remained completely untreated was used for further control. At the end of the test, the animals were shaved on their back and sides and were visually assessed independently by an examination panel of 6 people under double blind conditions. The first criterion evaluated was whether the majority of examiners correctly recognized the treated side, differentiation being carried out as follows: The second criterion evaluated was the difference between the righthand side and the lefthand side, each examiner having to award 1 point per animal on the following basis: Significant differences between the untreated and treated sides in the second method of evaluation indicated the local effectiveness of a substance. The third criterion evaluated was the difference in intensity between the shades of brown using the following scale: In the third method of evaluation, the total point differences are compared between the untreated control animals and the treated and untreated sides of the test animals, significant differences between the control animals and the treated side of the test animals again indicating the effectiveness of a substance. There is generally also a distinct difference between the untreated and treated sides of the same test animals. However, this difference is not always as clear as that between the control animals and the treated sides, for which there may be various reasons, such as mechanical transfer of substance from one side to the other or solvent influence. The following scheme was used for differentiating the effects according to evaluation methods 2 and 3: The sebum reduction is calculated from the points difference by working out the quotient between the points difference ΔP and the number of points for the control group Pk, and expressing the value obtained in percent. [formula] The benzyl alcohol derivatives were applied in the manner described in concentrations of 0.5 and 1.0% in alcohol/acetone (1:1).
SMILES,antiseborrheic effect [1],"Evaluation of sebosuppressive effects, evaluation method 1 (examiners recognizing the treated side) ([2]; 0.5% in alcohol/acetone (1:1))","Evaluation of sebosuppressive effects, evaluation method 2 (difference between righthand and lefthand side) ([2]; 0.5% in alcohol/acetone (1:1))","Evaluation of sebosuppressive effects, evaluation method 3 (difference in intensity of brown shades vs control animals) ([2]; 0.5% in alcohol/acetone (1:1))",Sebum reduction ([2]; 0.5% in alcohol/acetone (1:1)) [%],"Evaluation of sebosuppressive effects, evaluation method 1 (examiners recognizing the treated side) ([2]; 1.0% in alcohol/acetone (1:1))","Evaluation of sebosuppressive effects, evaluation method 2 (difference between righthand and lefthand side) ([2]; 1.0% in alcohol/acetone (1:1))","Evaluation of sebosuppressive effects, evaluation method 3 (difference in intensity of brown shades vs control animals) ([2]; 1.0% in alcohol/acetone (1:1))",Sebum reduction ([2]; 1.0% in alcohol/acetone (1:1)) [%]
"CC(=O)OCC=C(C)CCC=C(C)CCC=C(C)C [3,7,11-tri:methyl-2,6,10-dodecatri:en-1-ol acetate]",only a very weak antiseborrheic effect,–,–,–,–,–,–,–,–
"CCOCC=C(C)CCC=C(C)CCC=C(C)C [3,7,11-tri:methyl-2,6,10-dodecatri:en-1-ol ethyl ether]",only a very weak antiseborrheic effect,–,–,–,–,–,–,–,–
"CCCCCCCCc1ccc(CO)cc1 [A, 4-octylbenzyl alcohol]",–,++ (100%),++ (very large (≥99.9% probability)),++ (very large (≥99.9% probability)),94,–,–,–,–
"CCCCCCCCCCc1ccc(CO)cc1 [B, 4-decylbenzyl alcohol]",–,++ (100%),++ (very large (≥99.9% probability)),++ (very large (≥99.9% probability)),95,–,–,–,–
OCc1ccccc1 [Benzyl alcohol],–,–,–,–,–,0 (≥50%),0 (minimal (<95% probability)),0 (minimal (<95% probability)),0
"CCCCCCCCCCCCc1ccc(CO)cc1 [C, 4-dodecylbenzyl alcohol]",–,++ (100%),++ (very large (≥99.9% probability)),++ (very large (≥99.9% probability)),32,–,–,–,–
"CCCCCCCCCCOCc1ccc(CO)cc1 [D, 4-decyloxymethylbenzyl alcohol]",–,++ (100%),++ (very large (≥99.9% probability)),++ (very large (≥99.9% probability)),82,–,–,–,–
"OCc1ccc(-c2ccccc2)cc1 [E, 4-phenylbenzyl alcohol]",–,++ (100%),++ (very large (≥99.9% probability)),++ (very large (≥99.9% probability)),72,–,–,–,–
"CC(C)(C)c1ccc(CO)cc1 [F, 4-tert.-butylbenzyl alcohol]",–,–,–,–,–,++ (100%),++ (very large (≥99.9% probability)),++ (very large (≥99.9% probability)),56
